Test results published in patent US7547728B2, “Treating muscle wasting with selective androgen receptor modulators” (priority 2001, dated 2009).
Several values for one entry are separate records, joined by “and”; a condition that tells them apart may be missing. Equal values may be shown once. Read-outs that look alike come from different tables or passages of the source.

Tests used:
levator ani muscle = assay: Anabolic activity: levator ani muscle weight in male rats; type: in vivo, rat; conditions: for ED50 / Emax (% of Intact Control) / Relative Afficacy / Relative Potency: levator ani muscle; for ED50 / Emax (% of Intact Control): dose response 0.1-1.0 mg/day; for Relative Afficacy / Relative Potency: relative to TP; for Levator ani muscle weight compared with intact controls: castrated male rats, 0.1-1 mg/day (FIG. 7)
From the text: (§1) Male Sprague-Dawley rats were purchased from Harlan Biosciences (Indianapolis, Ind.). […] One day before the initiation of drug treatment, groups 4 through 6 and groups 7 through 9 received unilateral or bilateral orchidectomy, respectively, via a midline scrotal incision. […] All drugs given to animals were freshly prepared as solutions in polyethylene glycol 300 (PEG 300). Groups 4 and 7 received treatment with vehicle alone (i.e., PEG 300). […] The ventral prostates, seminal vesicles, and levator ani muscle were removed and weighed. Osmotic pumps were also removed from animals to check for correct pump operation. […] Statistical analyses of parameters from complete blood count or serum chemical profiling, wherever applicable, were performed by single-factor ANOVA with the alpha value set a priori at p<0.05.

levator ani = assay: Levator ani evaluation in androgen-treated intact female rats; type: in vivo, rat; conditions: 14 and 28 days treatment
From the text: In these same rats, the levator ani was dissected and evaluated for the expression pattern of MHC family members. […] Physiol. 75(5): 2337-2340, 1993].

MHC II b mRNA = assay: MHC IIb mRNA expression by RT-PCR in masseter muscle of intact female rats; type: in vivo, rat
Method: Rat muscle tissue was harvested in 5 volumes of RNA later solution (Ambion, cat.# 7020) and stored at 4° C. until used for RNA isolation. Total RNA was isolated in the FastPrep FP120 instrument (Qbiogene) using RNAqueous-4PCR kit (Ambion, cat # 1914) in combination with FastRNA green tubes (Qbiogene, cat.# 6040-600) at settings for time at 45 sec and speed at 6.5.1 ug of total RNA was used for reverse transcription using Retroscript kit (Ambion, cat# 1710). The mixture was incubated at 42° C. for 60 min, followed by 10 min at 92° C., and then chilled on ice and used in PCR reaction.
Relatively quantitative RT-PCR was used to analyze expression of MHC mRNA in rat musculus masseter (MM) and levator ani (LA). As an internal standard 18S ribosomal RNA was used (QuantumRNA classic 18S Internal Standard, Ambion, cat.# 1716). Linear range of PCR reaction for all primers as well as optimal ratio of 18S primers to competitors to achieve the same level of amplification as the genes of interest was determined.
Primers were obtained from IDT based on the recently published design (Wright et al., J. Appl. Phys. 1997;83:1389), with the following sequence: 5′[…]3′. […]
5 units of Taq DNA polymerase (Roche, cat# 1146165), 200 μM of each dNTP (Invitrogen, cat.#R725-01), 0.2 μM each MHC primer (IDT), 1 μl of cDNA from reverse transcription reaction and 4 μl of 18S primers: competitors mixture were used in 50 μl PCR reaction. […] PCR products were analyzed by agarose gel electrophoresis [20-μl aliquots of a 50-μl PCR reaction loaded on a 1.5% agarose gel (in 1× Tris-Acetate-EDTA buffer) containing 0.2 μg/ml ethidium bromide] to visualize the PCR products. […] Pictures were scanned and the volume of the optical density (OD) of a DNA band was determined by the Image Quant software (Molecular Dynamics), and the background was subtracted (so local background was directly proportional to the amount of DNA over a wide range). […] The content of each experimental group MHC gene was calculated as a percentage of the MHC value in the control group (Table 2).

MHC IIb mRNA = MHC IIb mRNA expression in masseter and gastrocnemius muscle of intact male rats; conditions: TP 5 mg/kg/day, Compound V 1 mg/kg/day
seminal vesicles = assay: Androgenic activity: seminal vesicle weight in male rats; type: in vivo, rat; conditions: for ED50 / Emax (% of Intact Control) / Relative Afficacy / Relative Potency: seminal vesicle; for ED50 / Emax (% of Intact Control) / Seminal Vesicles weight: castrated rats; for ED50 / Emax (% of Intact Control): dose response 0.1-1.0 mg/day; for Relative Afficacy / Relative Potency: relative to TP; for Agonist character in seminal vesicles: male rats, from organ weights
From the text: as §1

prostate = assay: Androgenic activity: prostate weight in male rats; type: in vivo, rat; conditions: for Agonist character in prostate: male rats, from organ weights
From the text: as §1

androgen receptor = biological target: T1, androgen receptor (Rattus norvegicus, UniProt P15207); assay: biochemical; type: binding; conditions: for RBA (%): relative binding affinity
T1 construct: from tissue
T1 sequence (P15207 1-902): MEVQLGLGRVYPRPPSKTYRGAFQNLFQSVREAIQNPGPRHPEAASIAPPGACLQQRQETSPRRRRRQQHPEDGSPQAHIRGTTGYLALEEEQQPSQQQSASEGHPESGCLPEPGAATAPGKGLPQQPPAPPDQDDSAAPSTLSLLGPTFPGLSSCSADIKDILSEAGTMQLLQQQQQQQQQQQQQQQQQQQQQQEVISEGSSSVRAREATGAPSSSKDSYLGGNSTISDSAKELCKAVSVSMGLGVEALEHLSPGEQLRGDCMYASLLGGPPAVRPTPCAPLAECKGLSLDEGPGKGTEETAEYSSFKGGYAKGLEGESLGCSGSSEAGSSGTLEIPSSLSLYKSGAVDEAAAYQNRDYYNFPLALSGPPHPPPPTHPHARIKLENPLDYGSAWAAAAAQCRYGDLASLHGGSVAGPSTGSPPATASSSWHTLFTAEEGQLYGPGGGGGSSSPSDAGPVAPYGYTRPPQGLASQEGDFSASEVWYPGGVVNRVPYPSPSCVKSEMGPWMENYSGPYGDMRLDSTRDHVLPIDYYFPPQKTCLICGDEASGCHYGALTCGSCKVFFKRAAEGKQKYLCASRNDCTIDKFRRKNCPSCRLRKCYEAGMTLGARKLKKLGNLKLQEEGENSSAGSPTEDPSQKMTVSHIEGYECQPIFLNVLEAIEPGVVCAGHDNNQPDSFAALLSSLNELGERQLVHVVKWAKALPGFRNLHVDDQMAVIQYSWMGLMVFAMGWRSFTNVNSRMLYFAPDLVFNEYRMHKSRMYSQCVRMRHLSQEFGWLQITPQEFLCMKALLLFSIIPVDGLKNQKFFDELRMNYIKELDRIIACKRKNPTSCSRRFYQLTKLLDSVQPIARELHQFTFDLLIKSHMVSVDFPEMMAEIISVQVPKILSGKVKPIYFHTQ

[1] = Adverse pharmacologic effects in rats of varying hormonal status; type: in vivo, rat; conditions: male rats, 0.5 mg/day, 14 days
FSH, LH and testosterone = assay: Plasma concentrations of FSH, LH and testosterone in treated male rats; type: in vivo, rat; conditions: data not shown
[2] = prostate, castrated rats, dose response 0.1-1.0 mg/day
[3] = castrated rats, 1 mg/day, daily injection

With CCC(=O)O[C@H]1CC[C@H]2[C@@H]3CCC4=CC(=O)CC[C@]4(C)[C@H]3CC[C@]12C [TP, testosterone propionate, reference compound] the “ED50” value (levator ani muscle; castrated rats) was 0.15 ± 0.03 mg/day, the “Emax (% of Intact Control)” value (levator ani muscle; castrated rats) was 104.2 ± 10.1 % of Intact Control and the “Relative Afficacy” value (levator ani muscle) was 1.00. The “Relative Potency” value (levator ani muscle) was 1.00, the “Presence of levator ani muscle after treatment” value (levator ani) was “had a muscle present in the location expected for the levator ani” and the “MHC IIb expression, % of untreated control” value (from here on “MHC IIb expression, %”) (MHC II b mRNA) was 141.5%. The “MHC IIb expression, %” value (MHC II b mRNA; listed as testosterone propionate) was 142%, the “MHC type IIb transcription, % of untreated control” value (“MHC type IIb transcription, %” below) (MHC IIb mRNA; gastrocnemius muscle) was 139(±47) % and the “MHC type IIb transcription, %” value (MHC IIb mRNA; masseter muscle) was 120(±14) %. For the same compound, the “ED50” value (seminal vesicles) was 0.12 ± 0.02 mg/day, the “Emax (% of Intact Control)” value (seminal vesicles) was 70.0 ± 18.8 % of Intact Control and the “Relative Afficacy” value (seminal vesicles) was 1.00. The “Relative Potency” value (seminal vesicles) was 1.00, the “ED50” value (prostate; [2]) was 0.13 ± 0.03 mg/day and the “Emax (% of Intact Control)” value (prostate; [2]) was 120.6 ± 13.4 % of Intact Control. The “Relative Afficacy” value (prostate; prostate, relative to TP) was 1.00 and the “Relative Potency” value (prostate; prostate, relative to TP) was 1.00.

With C[C@](O)(COc1ccc(Cl)cc1)C(=O)Nc1ccc([N+](=O)[O-])c(C(F)(F)F)c1 [Compound VII] the “Levator ani muscle weight compared with intact controls” value (levator ani muscle) was “exceeding those of intact controls”.

In the case of C[C@](O)(COc1c(F)c(F)c(F)c(F)c1F)C(=O)Nc1ccc([N+](=O)[O-])c(C(F)(F)F)c1 [Compound XII], the “Levator Ani Muscle weight” value (levator ani muscle; castrated rats, 1 mg/day via osmotic pump) is reported as 122.5±10.4 % of intact, the “RBA (%)” value (androgen receptor) is reported as 13.3% and the “Seminal Vesicles weight” value (seminal vesicles; 1 mg/day, daily injection) is reported as 7.2 ± 0.9 % of intact. The “Agonist character in seminal vesicles” value (seminal vesicles) was “weak partial agonist”, the Prostate weight (prostate; [3]) was 7.2 ± 1.4 % of intact and the “Agonist character in prostate” value (prostate) was “weak partial agonist”.

In the case of C[C@](O)(COc1ccc(Br)cc1)C(=O)Nc1ccc([N+](=O)[O-])c(C(F)(F)F)c1 [Compound VIII], the “Levator ani muscle weight compared with intact controls” value (levator ani muscle) is reported as “close to those of the intact controls” and the “RBA (%)” value (androgen receptor) is reported as 5.3%.

In the case of C[C@](O)(COc1ccc(F)cc1)C(=O)Nc1ccc([N+](=O)[O-])c(C(F)(F)F)c1 [Compound VI], the “Levator ani muscle weight compared with intact controls” value (levator ani muscle) is reported as “close to those of the intact controls”, the “ED50” value (levator ani muscle; castrated rats) is reported as 0.44 ± 0.01 mg/day and the “Emax (% of Intact Control)” value (levator ani muscle; castrated rats) is reported as 74.9 ± 0.4 % of Intact Control. The “Relative Afficacy” value (levator ani muscle) was 0.72, the “Relative Potency” value (levator ani muscle) was 0.34 and the “ED50” value (seminal vesicles) was 0.38 ± 0.26 mg/day. For the same compound, the “Emax (% of Intact Control)” value (seminal vesicles) was 12.7 ± 3.1 % of Intact Control, the “Relative Afficacy” value (seminal vesicles) was 0.18 and the “Relative Potency” value (seminal vesicles) was 0.32.

In the case of CC(=O)Nc1ccc(OC[C@](C)(O)C(=O)Nc2ccc([N+](=O)[O-])c(C(F)(F)F)c2)cc1 [Compound V], the “Agonist character in levator ani muscle” value (levator ani muscle; male rats, from organ weights) is reported as “full agonist”, the “Presence of levator ani muscle after treatment” value (levator ani) is reported as “had a muscle present in the location expected for the levator ani” and the Adverse pharmacologic effects [1] is reported as “No adverse pharmacologic effects were observed”. The “MHC IIb expression, %” value (MHC II b mRNA) was 124% and 124.5%, the “Changes in plasma concentrations of FSH, LH and testosterone” value (FSH, LH and testosterone) was “absence of any significant changes” and the “MHC type IIb transcription, %” value (MHC IIb mRNA; gastrocnemius muscle) was 162(±54) %. The “MHC type IIb transcription, %” value (MHC IIb mRNA; masseter muscle) was 117(±13) %, the “Agonist character in seminal vesicles” value (seminal vesicles) was “partial agonist” and the “ED50” value (seminal vesicles) was 0.55 ± 0.02 mg/day. The “Emax (% of Intact Control)” value (seminal vesicles) was 28.5 ± 0.8 % of Intact Control and the “Agonist character in prostate” value (prostate) was “partial agonist”.

With C[C@](O)(COc1ccc(F)c(F)c1)C(=O)Nc1ccc([N+](=O)[O-])c(C(F)(F)F)c1 [Compound XI] the Ki (androgen receptor) was 3.4 ± 0.56 nM, the “Seminal Vesicles weight” value (seminal vesicles; 1 mg/day, daily injection) was 23.6 ± 8.8 % of intact and the “Agonist character in seminal vesicles” value (seminal vesicles) was “weak partial agonist”. For the same compound, the Prostate weight (prostate; [3]) was 33.1 ± 8.5 % of intact and the “Agonist character in prostate” value (prostate) was “weak partial agonist”.

In the case of C[C@](O)(COc1ccc(I)cc1)C(=O)Nc1ccc([N+](=O)[O-])c(C(F)(F)F)c1 [Compound IX], the “Levator ani muscle weight compared with intact controls” value (levator ani muscle) is reported as “close to those of the intact controls” and the “RBA (%)” value (androgen receptor) is reported as 2.7%.

With C[C@](O)(COc1ccc(F)cc1)C(=O)Nc1ccc(C#N)c(C(F)(F)F)c1 [Compound X] the “Levator Ani weight” value (levator ani muscle; castrated rats, 0.10 mg/day) was 54.9 ± 5.77 % of intact, the “Levator Ani weight” value (levator ani muscle; castrated rats, 0.50 mg/day) was 55.0 ± 9.23 % of intact and the “Levator Ani weight” value (levator ani muscle; castrated rats, 0.75 mg/day) was 68.9 ± 8.46 % of intact. For the same compound, the “Levator Ani weight” value (levator ani muscle; castrated rats, 1.00 mg/day) was 75.2±9.51 % of intact, the “Seminal Vesicles weight” value (seminal vesicles; 0.10 mg/day) was 8.8 ± 1.18 % of intact and the “Seminal Vesicles weight” value (seminal vesicles; 0.50 mg/day) was 9.3 ± 1.57 % of intact. For the same compound, the “Seminal Vesicles weight” value (seminal vesicles; 0.75 mg/day) was 9.8 ± 3.65 % of intact, the “Seminal Vesicles weight” value (seminal vesicles; 1.00 mg/day) was 10.7±0.91 % of intact and the “Agonist character in seminal vesicles” value (seminal vesicles) was “weak partial agonist”. The Prostate weight (prostate; castrated rats, 0.10 mg/day) was 6.4 ± 0.82 % of intact, the Prostate weight (prostate; castrated rats, 0.50 mg/day) was 6.2 ± 0.56 % of intact and the Prostate weight (prostate; castrated rats, 0.75 mg/day) was 7.6 ± 0.74 % of intact. For the same compound, the Prostate weight (prostate; castrated rats, 1.00 mg/day) was 8.7±1.39 % of intact and the “Agonist character in prostate” value (prostate) was “weak partial agonist”.
